Results on 2 compounds are retold here after PMC6454709, “Application of WST-8 based colorimetric NAD(P)H detection for quantitative dehydrogenase assays” (BMC Biochemistry, 2019).

Structures are written as SMILES. Read-outs that look alike come from different tables or passages of the source.

In this experiment the test system is T1, Bacillus GDH.
T1 construct: commercial enzyme from GDH activity colorimetric assay kit (Biovision)
The experiment in a line: WST-8/1-mPMS formazan assay, […] nm, Michaelis-Menten fit. The format is biochemical. The note with it: 20 mM Tris-HCl pH 9.0, 37 °C. In general terms: Formazan colour is commonly taken as a measure of viable cells.

`OC[C@H]1OC(O)[C@H](O)[C@@H](O)[C@@H]1O` (stereo partly drawn) [D-(+)-glucose]: the Km (1 mM NAD+, read-out: KM (mM) / Glucose) was determined as 17.1 ± 2 mM.

`NC(=O)c1ccc[n+]([C@@H]2O[C@H](COP(=O)(O)OP(=O)(O)OC[C@H]3O[C@@H](n4cnc5c(N)ncnc54)[C@H](O)[C@@H]3O)[C@@H](O)[C@H]2O)c1` [NAD^+]: the Km (250 mM glucose, read-out: KM (mM) / NAD^+) was 0.271 ± 0.027 mM.
